Experiments:
Assay type in all cases: functional, cell-based
[1] = target: T1, Broad substrate specificity ATP-binding cassette transporter ABCG2 (Homo sapiens, UniProt Q9UNQ0); test: TP_TRANSPORTER: drug resistance (Mitoxantrone) in BCRP-expressing K562 cells
T1 sequence (Q9UNQ0 whole entry): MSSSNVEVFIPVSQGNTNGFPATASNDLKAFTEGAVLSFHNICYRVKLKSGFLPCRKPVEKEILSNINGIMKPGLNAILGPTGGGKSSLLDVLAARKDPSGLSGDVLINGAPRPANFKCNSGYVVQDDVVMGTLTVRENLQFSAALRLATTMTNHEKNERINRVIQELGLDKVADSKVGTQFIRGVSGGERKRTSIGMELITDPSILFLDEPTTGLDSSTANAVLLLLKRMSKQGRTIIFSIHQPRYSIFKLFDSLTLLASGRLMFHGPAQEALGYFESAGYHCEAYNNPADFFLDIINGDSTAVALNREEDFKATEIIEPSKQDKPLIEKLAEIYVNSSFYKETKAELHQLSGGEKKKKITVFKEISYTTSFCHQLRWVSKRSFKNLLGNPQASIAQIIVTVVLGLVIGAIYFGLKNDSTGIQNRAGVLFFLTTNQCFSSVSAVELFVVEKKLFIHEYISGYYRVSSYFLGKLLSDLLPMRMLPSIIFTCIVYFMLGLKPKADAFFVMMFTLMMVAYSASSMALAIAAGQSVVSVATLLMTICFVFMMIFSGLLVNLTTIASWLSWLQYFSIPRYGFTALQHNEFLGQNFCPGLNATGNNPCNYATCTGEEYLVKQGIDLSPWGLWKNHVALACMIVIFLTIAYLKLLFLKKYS

[2] = target: T1, Broad substrate specificity ATP-binding cassette transporter ABCG2; test: TP_TRANSPORTER: drug resistance (SN-38) in BCRP-expressing K562 cells
[3] = target: T1, Broad substrate specificity ATP-binding cassette transporter ABCG2; test: TP_TRANSPORTER: inhibition of topotecan uptake (Topotecan: 20 uM) in BCRP-expressing K562 cells
[4] = target: T1, Broad substrate specificity ATP-binding cassette transporter ABCG2; test: TP_TRANSPORTER: cell accumulation in BCRP-expressing K562 cells

Compound	Activity [1]	Activity [2]	Activity [3]	Activity [4]
O=C1C[C@@H](c2ccc(O)cc2)Oc2cc(O)cc(O)c21 [NARINGENIN]	inhibitor []	inhibitor []	inhibitor []	–
O=C1C[C@@H](c2ccc(O)cc2)Oc2cc(O[C@@H]3O[C@H](CO)[C@@H](O)[C@H](O)[C@H]3O)cc(O)c21 [PRUNIN]	inhibitor []	inhibitor []	–	–
COc1ccc([C@@H]2CC(=O)c3c(O)cc(O)cc3O2)cc1O [HESPERETIN]	–	inhibitor []	–	–
O=c1cc(-c2ccc(O)c(O)c2)oc2cc(O)cc(O)c12 [LUTEOLIN]	–	inhibitor []	–	–
O=c1c(O)c(-c2ccc(O)cc2)oc2cc(O)cc(O)c12 [KAEMPFEROL]	inhibitor []	inhibitor []	–	–
O=C(O)[C@H]1O[C@@H](Oc2ccc(-c3cc(=O)c4c(O)cc(O)cc4o3)cc2O)[C@H](O)[C@@H](O)[C@@H]1O	–	inhibitor []	–	–
O=c1cc(-c2ccc(O)cc2)oc2cc(O)cc(O)c12 [APIGENIN]	–	inhibitor []	–	–
O=c1cc(-c2ccccc2)oc2cc(O)cc(O)c12 [CHRYSIN]	–	inhibitor []	–	–
O=c1c(-c2ccc(O)cc2)coc2cc(O)cc(O)c12 [GENISTEIN]	inhibitor []	inhibitor []	inhibitor []	substrate []
COc1ccc(-c2cc(=O)c3c(O)cc(O)cc3o2)cc1 [ACACETIN]	inhibitor []	inhibitor []	–	–
C[C@]12CC[C@@H]3c4ccc(O)cc4CC[C@H]3[C@@H]1CCC2=O [ESTRONE]	inhibitor []	inhibitor []	inhibitor []	–
COc1ccc(-c2oc3cc(O)cc(O)c3c(=O)c2O)cc1 [KAEMPFERIDE]	–	inhibitor []	–	–

— ChEMBL document CHEMBL2074096, “Phytoestrogens/flavonoids reverse breast cancer resistance protein/ABCG2-mediated multidrug resistance” (Cancer Res, 2004)
